Assay results from patent publication US6211244A, “Calcium receptor-active compounds” (priority 1995, dated 2001).
Counter-ions that a name gives are not always drawn.

Assays:
human calcium receptor = biological target: T1, human calcium receptor (Homo sapiens, UniProt P41180, R990G); experiment: increases in [Ca^2+ ]i in HEK-293 cells expressing the human calcium receptor (fura-2 loaded HEK 293/pHuPCaR4.0 cells), % activity; format: cell-based
T1 construct: expressed in transfected cells; host or cells: HEK 293
T1 sequence (P41180 20-1078 R990G): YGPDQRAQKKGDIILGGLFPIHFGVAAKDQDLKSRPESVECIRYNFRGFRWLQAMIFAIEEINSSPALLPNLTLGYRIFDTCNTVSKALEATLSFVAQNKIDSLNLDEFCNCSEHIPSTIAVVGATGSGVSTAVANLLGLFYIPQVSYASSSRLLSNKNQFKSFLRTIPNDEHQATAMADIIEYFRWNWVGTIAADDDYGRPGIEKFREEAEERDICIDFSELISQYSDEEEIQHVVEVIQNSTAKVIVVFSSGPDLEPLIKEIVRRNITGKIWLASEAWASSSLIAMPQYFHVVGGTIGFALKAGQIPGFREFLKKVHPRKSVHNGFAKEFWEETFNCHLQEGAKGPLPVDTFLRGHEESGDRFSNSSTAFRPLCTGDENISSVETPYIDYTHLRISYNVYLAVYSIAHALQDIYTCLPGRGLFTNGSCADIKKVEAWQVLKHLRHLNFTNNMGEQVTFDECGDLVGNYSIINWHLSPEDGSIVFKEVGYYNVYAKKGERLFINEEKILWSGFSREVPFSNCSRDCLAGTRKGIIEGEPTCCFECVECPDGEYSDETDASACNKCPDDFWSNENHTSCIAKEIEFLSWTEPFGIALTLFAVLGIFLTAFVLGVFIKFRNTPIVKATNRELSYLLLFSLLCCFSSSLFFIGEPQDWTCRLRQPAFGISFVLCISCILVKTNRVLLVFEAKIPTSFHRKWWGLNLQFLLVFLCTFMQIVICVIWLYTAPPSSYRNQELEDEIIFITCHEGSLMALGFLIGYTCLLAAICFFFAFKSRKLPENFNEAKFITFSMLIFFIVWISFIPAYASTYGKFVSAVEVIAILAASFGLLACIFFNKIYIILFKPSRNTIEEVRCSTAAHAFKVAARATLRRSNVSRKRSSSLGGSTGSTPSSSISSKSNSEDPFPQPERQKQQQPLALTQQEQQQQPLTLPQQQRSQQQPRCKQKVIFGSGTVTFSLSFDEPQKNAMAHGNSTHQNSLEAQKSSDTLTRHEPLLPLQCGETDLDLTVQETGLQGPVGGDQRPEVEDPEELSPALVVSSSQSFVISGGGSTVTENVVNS

[1] = system: Parathyroid Cell Calcium Receptor; experiment: EC50 in parathyroid cells or HEK 293/pHuPCaR4.0 cells loaded with fura-2; format: cell-based, calves and humans; settings: parathyroid cells or HEK 293/pHuPCaR4.0, fura-2; cell type not given per value
Protocol: This section describes procedures used to obtain parathyroid cells from calves and humans, and to use the parathyroid cells to measure calcium receptor activity.
Human parathyroid glands, were obtained from patients undergoing surgical removal of parathyroid tissue for primary or uremic hyperparathyroidism (uremic HPT), and were treated similarly to bovine tissue.
Glands were trimmed of excess fat and connective tissue and then minced with fine scissors into cubes approximately 2-3 mm on a side. Dissociated parathyroid cells were prepared by collagenase digestion and then purified by centrifugation in Percoll buffer.
Primary culture also has the advantage that cells can be labeled with isotopes to near isotopic equilibrium, as is necessary for studies involving measurements of inositol phosphate metabolism.
ITS+ is a premixed solution containing insulin, transferrin, selenium, and bovine serum albumin (BSA)-linolenic acid (Collaborative Research, Bedford, Mass.). The cells were then transferred to plastic flasks (75 or 150 cm^2; Falcon) and incubated overnight at 37° C. in a humid atmosphere of 5% CO2. No serum is added to these overnight cultures, since its presence allows the cells to attach to the plastic, undergo proliferation, and dedifferentiate.
The cells were then pelleted, resuspended in the same buffer, but lacking the ester, and incubated a further 15 minutes at 37° C. The cells were subsequently washed twice with PCB containing 0.5 mM CaCl2 and 0.5% BSA and maintained at room temperature (about 20° C.). Immediately before use, the cells were diluted five-fold with prewarmed 0.5 mM CaCl2 -PCB to obtain a final BSA concentration of 0.1%. The concentration of cells in the cuvette used for fluorescence recording was 1-2×10^6 /ml.
The fluorescence of indicator-loaded cells was measured at 37° C. in a spectrofluorimeter (Biomedical Instrumentation Group, University of Pennsylvania, Philadelphia, Pa.) equipped with a thermostated cuvette holder and magnetic stirrer using excitation and emission wavelengths of 340 and 510 nm, respectively. […] To correct the calibration for dye leakage, cells were placed in the cuvette and stirred at 37° C. for 2-3 minutes. The cell suspension was then removed, the cells pelleted, and the supernatant returned to a clean cuvette. […] This estimate was subtracted from the apparent Fmin.
HEK 293 cells transfected with pHuPCaR4.0 were loaded with fura-2 by incubating the cells in Dulbecco's modified Eagle's media buffered with 20 mM HEPES containing about 5 μM […] for one hour at room temperature. Cell were then rinsed with Hank's balanced salt solution buffered with 20 mM HEPES containing 1 mM CaCl2 and 1 mM MgCl2. Compounds to be tested were then added to the cells and fluorescence was measured (excitation and emission wavelengths of 340 and 510 nm, respectively).

| Compound | % activity (human calcium receptor; 33 ng/mL) [%] | % activity (human calcium receptor; 330 ng/mL) [%] | EC50 [1] [µM] |
| --- | --- | --- | --- |
| CC(N[C@H](C)c1ccccc1)c1ccc2ccccc2c1 (stereo partly drawn) [Compound 4H, N-[1-(2-naphthyl)ethyl]-1-phenylethylamine] | 37 | 77 | ≥ 3 |
| COc1cccc([C@@H](C)NCCCc2cccc(F)c2)c1 [Compound 4N] | 65 | 100 | 0.8 |
| C[C@@H](NCc1ccc2ccccc2c1)c1cccc2ccccc12 [Compound 9C] | 82 | 104 | 0.6 |
| CC(C)C(N[C@H](C)c1cccc2ccccc12)c1ccc2ccccc2c1 (stereo partly drawn) [Compound 10F] | 84 | 96 | 0.89 |
| C[C@@H](NCCCc1ccccc1Cl)c1cccc2ccccc12 [Compound 12Z, N-3-(2-chlorophenyl)-1-propyl-(R)-1-(1-naphthyl) ethylamine hydrochloride] | – | – | 0.11 |
| CCCOc1ccc(CN[C@H](C)c2cccc3ccccc23)cc1 [Compound 13Q] | 46 | 95 | ~0.8 |
| C[C@@H](NCc1ccc(C(F)(F)F)cc1)c1cccc2ccccc12 [Compound 13S] | 87 | 102 | < 0.13 |
| C[C@@H](NCc1ccc2c(c1)OCCO2)c1cccc2ccccc12 [Compound 13X] | 65 | 102 | < 0.75 |
| COc1ccc([C@H](C)N[C@H](C)c2cccc3ccccc23)cc1 [Compound 14V] | – | – | 1.7 |
| COc1cccc(C(C)NC(C)c2cccc3ccccc23)c1 (stereo not drawn) [Compound 14Y] | 73 | 109 | 0.38 |
| C[C@@H](NCc1ccc(C(C)(C)C)cc1)c1cccc2ccccc12 [Compound 15G] | 80 | 113 | ~0.5 |
| COc1ccc(CN[C@H](C)c2cccc3ccccc23)cc1C [Compound 16Q] | 88 | 110 | 0.04 |
| COc1ccc(CN[C@H](C)c2cccc3ccccc23)cc1F [Compound 16T] | 88 | 97 | 0.04 |
| Cc1ccc(CN[C@H](C)c2cccc3ccccc23)cc1C [Compound 16V] | 102 | 114 | < 0.13 |
| CSc1ccc(CN[C@H](C)c2cccc3ccccc23)cc1 [Compound 16X] | 96 | 111 | 0.1 |
| COc1ccc([C@@H](C)N[C@H](C)c2cccc3ccccc23)cc1C.Cl [Compound 17P, (R)-N-(1-(4-Methoxy-3-methylphenyl)ethyl)-(R)-1-(1-naphthyl)ethylamine hydrochloride] | 86 | 101 | 0.04 |
| COc1ccc([C@@H](C)N[C@H](C)c2cccc3ccccc23)cc1Cl [Compound 17X, (R,R)-N-(1-Ethyl-4'-methoxy-3'-chlorophenyl)-1-(1-naphthylethyl) amine] | 93 | 105 | 0.02 |
| COc1cccc([C@@H](C)NC2CCN(Cc3ccccc3)CC2)c1 [Compound 20F] | – | – | < 1 |
| COc1ccc(CCCN[C@H](C)c2cccc(OC)c2)cc1 [Compound 20I] | 52 | 87 | > 1 |
| COc1cccc([C@@H](C)NCCCc2ccc(OC)c(OC)c2)c1 [Compound 20J] | 48 | 80 | > 3 |
| CCC(CCc1ccccc1)NC(C)c1cccc(OC)c1 (stereo not drawn) [Compound 20S] | – | – | 4.2 |
| COc1cccc([C@@H](C)N[C@H](C)CCc2ccccc2)c1 [Compound 21D, (R,R)-N-(4-phenyl-2-butyl)-1-(3-methoxyphenyl)ethylamine] | 75 | 104 | 3 |
| C[C@H](CCc1ccccc1)N[C@H](C)c1cccc2ccccc12 [Compound 21F, (R,R)-N-(4-phenyl-2-butyl)-1-(1-naphthyl)etbylamine] | 85 | 109 | 0.38 |
| C[C@@H](CCc1ccccc1)N[C@H](C)c1cccc2ccccc12 [Compound 21G] | 63 | 88 | 1.1 |
| C[C@H](CCc1cccc(C(F)(F)F)c1)N[C@@H](C)c1cccc2ccccc12 [Compound 25C, (S,R)-N-[4-(3-trifluoromethylphenyl)-2-butyl]-1-(1-naphthyl)ethylamine] | – | – | > 2 |
| C[C@H](CCc1cccc(C(F)(F)F)c1)N[C@H](C)c1cccc2ccccc12 [Compound 25D, (R,R)-N-[4-(3-trifluoromethylphenyl)-2-butyl]-1-(1-naphthyl)ethylamine] | – | – | 0.019 |
